US20260062422A1 (Halda Therapeutics OpCo, Inc., priority 2022, published 2026)

Key:
[1] = tested on: T-Rex 293 cell line SC3 cells having increased expression of androgen receptor protein due to exposure to doxycycline; test: Cellular growth inhibition, T-Rex 293 SC3 cells with doxycycline (androgen receptor induced), CellTiter-Glo; format: cell-based; settings: T-Rex 293 SC3 cells with 10 ng/mL doxycycline (increased androgen receptor expression)
Procedure: (§1) The following types of cells were prepared for this experiment: (i) a T-Rex 293 cell line having increased expression of androgen receptor protein due to exposure to doxycycline and (ii) a T-Rex 293 cell line lacking increased expression of androgen receptor protein. Ability of the test compounds to inhibit proliferation of the foregoing cell types was evaluated according to the procedures set forth below.
(§2) The doxycycline-inducible androgen receptor protein expressing cell line was established using the following protocol: T-Rex 293 cells were purchased from Invitrogen (Cat #R71007) and transfected using Lipofectamine 2000 with the wild-type androgen receptor protein sequence cloned into the pcDNA4/TO vector. Transfected cells were selected using 400 μg/mL Zeocin (Invitrogen Cat #R25001). Following selection, single clones were raised and maintained in Dulbecco's Modified Eagle Medium (DMEM) supplemented with 10% w/w Tetracycline-free fetal bovine serum (FBS) and 250 μg/mL Zeocin. Clones were analyzed for expression of androgen receptor protein in the presence and absence of 10 ng/mL doxycycline (Sigma Cat #D9891), and a single doxycycline-inducible clone (hereinafter “SC3”) was selected for use in downstream assays.
(§3) The SC3 cells were seeded on poly-D-lysine coated, black clear-bottom 384-well plates at 2500/well, in 25 μL Phenol Red Free Dulbecco's Modified Eagle Medium (DMEM) supplemented with 10% w/w charcoal-dextran treated fetal bovine serum (FBS) and 1% w/w pen-strep, with or without 10 ng/mL doxycycline. Pen-Strep is a commercially available mixture of penicillin G and streptomycin, which is used in mammalian cell culture media to prevent bacterial contamination. Phenol Red Free Dulbecco's Modified Eagle Medium (DMEM) supplemented with 10% w/w charcoal-dextran treated fetal bovine serum (FBS) and 1% w/w pen-strep, with or without 10 ng/mL doxycycline is herein referred to as Treatment Medium. Following seeding of cells in the plates, the plates were spun at 300×g for 30 seconds, then equilibrated to room temperature for 30 minutes, and then deposited in a humidified tissue culture incubator maintained at 37° C. with 5% CO2.
(§4) At 24 hours after seeding of the cells, dilutions of test compound were prepared in DMSO and dissolved in Treatment Medium, to achieve a final DMSO concentration of 0.5% w/w, thereby providing the Test Compound Solution. A 25 μL aliquot of the Test Compound Solution was added to cells in the well plates. An equal volume of a solution containing DMSO and Treatment Medium was used as a negative control. Following treatment of cells with Test Compound Solution or said equal volume of a solution containing DMSO and Treatment Medium, the plates were spun at 300×g for 30 seconds, and then left in an incubator for 72 hours. At the end of the treatment duration, cell viability was quantified with CellTiter-Glo 2.0 reagent (Promega Cat #G9243). For this purpose, plates were equilibrated to room temperature for 30 minutes, and then 25 μL of CellTiter-Glo 2.0 reagent was added to cells in the plate wells. Plates were then agitated on a shaker for two minutes at 500 rpm and subsequently incubated at room temperature for 10 minutes. Following incubation, the plates were spun at 3000×g for 30 seconds, then sealed with an optical adhesive cover, and luminescence readings were measured with an EnVision Plate Reader. Data was normalized using zero luminescence for baseline. A four-parameter non-linear regression curve fit was applied to dose-response data in GraphPad Prism data analysis software to determine the half-maximal growth inhibitory concentration (GI50) for each test compound.

[2] = tested on: T-Rex 293 cell line SC3 cells lacking increased expression of androgen receptor protein; test: Cellular growth inhibition, T-Rex 293 SC3 cells without doxycycline, CellTiter-Glo; format: cell-based; settings: T-Rex 293 SC3 cells not exposed to doxycycline, CellTiter-Glo 2.0
Procedure: as §1, §2, §3, §4

VCaP cells = test: Cellular growth inhibition assay for VCaP cells, CellTiter-Glo; format: cell-based, human; settings: 72 hours treatment, CellTiter-Glo 2.0
Procedure: VCaP cells were purchased from American Type Cell Culture (ATCC Cat #CRL2876) and then seeded on poly-D-lysine coated, black clear-bottom 384-well plates at 5000/well in 25 μL Dulbecco's Modified Eagle Medium (DMEM) supplemented with 10% w/w Fetal bovine serum (FBS) and 1% w/w Pen-Strep. Pen-Strep is a commercially available mixture of penicillin G and streptomycin, which is used in mammalian cell culture media to prevent bacterial contamination. Dulbecco's Modified Eagle Medium (DMEM) supplemented with 10% w/w fetal bovine serum (FBS) and 1% w/w Pen-Strep is herein referred to as Treatment Medium. Following seeding of cells in the plates, the plates were spun at 300×g for 30 seconds, then equilibrated to room temperature for 30 minutes, and then deposited in a humidified tissue culture incubator maintained at 37° C. with 5% CO2.
At 24 hours after seeding of the cells, dilutions of test compound were prepared in DMSO and dissolved in Treatment Medium, to achieve a final DMSO concentration of 0.5% w/w, thereby providing the Test Compound Solution. A 25 μL aliquot of the Test Compound Solution was added to cells in the well plates. An equal volume of a solution containing DMSO and Treatment Medium was used as a negative control. Following treatment of cells with Test Compound Solution or said equal volume of a solution containing DMSO and Treatment Medium, the plates were spun at 300×g for 30 seconds, and then left in an incubator for 72 hours.
At the end of the treatment duration, cell viability was quantified with CellTiter-Glo 2.0 reagent (Promega Cat #G9243). For this purpose, plates were equilibrated to room temperature for 30 minutes, and then 25 μL of CellTiter-Glo 2.0 reagent was added to cells in the plate wells. Plates were then agitated on a shaker for two minutes at 500 rpm and subsequently incubated at room temperature for 10 minutes. Following incubation, the plates were spun at 3000×g for 30 seconds, then sealed with an optical adhesive cover, and luminescence readings were measured with an EnVision Plate Reader.
Data was normalized using zero luminescence for baseline. A four-parameter non-linear regression curve fit was applied to dose-response data in GraphPad Prism data analysis software to determine the half-maximal growth inhibitory concentration (GI50) for each test compound.

T47D cells = test: Cellular growth inhibition assay for T47D cells, CellTiter-Glo; format: cell-based, human; settings: 72 hours treatment, CellTiter-Glo 2.0 cell viability
Summary of the method: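 Luminescence from CellTiter-Glo 2.0 after 72 h of compound exposure gives the viability signal. Cells grew in insulin-supplemented (0.2 units/mL) DMEM with 10% FBS and were treated one day after seeding at 0.5% DMSO. GI50 values come from four-parameter nonlinear regression.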

Compound	GI50 ([1]; 72 h) [µM]	GI50 ([2]; 72 h) [µM]	also measured
CCNC(=O)C[C@@H]1N=C(c2ccc(OCCOCCOC3CCN(c4ncc(C(=O)N[C@H]5C(C)(C)[C@H](Oc6ccc(C#N)c(Cl)c6)C5(C)C)cn4)CC3)cc2F)c2c(sc(C)c2C)-n2c(C)nnc21 [Compound I-77]	< 0.5	0.5 to 1.5	GI50 (VCaP cells; Homo sapiens, VCaP, 72 h): 0.5 to 1.5 µM
Cc1sc2c(c1C)C(c1ccc(OC[C@@H]3CCCN(c4cnc(C(=O)N[C@H]5C(C)(C)[C@H](Oc6ccc(C#N)c(Cl)c6)C5(C)C)cn4)C3)cc1)=N[C@@H](C)c1nnc(C)n1-2 [Compound I-588]	< 0.5	> 3	GI50 (T47D cells; Homo sapiens, T47D, 72 h): 0.5 to 1.5 µM
CCNC(=O)C[C@@H]1N=C(c2ccc(CCCCCCCOC3CCN(c4ncc(C(=O)N[C@H]5C(C)(C)[C@H](Oc6ccc(C#N)c(Cl)c6)C5(C)C)cn4)CC3)cc2)c2c(sc(C)c2C)-n2c(C)nnc21 [Compound I-92]	< 0.5	> 3	GI50 (VCaP cells; Homo sapiens, VCaP, 72 h): < 0.5 µM
CCNC(=O)C[C@@H]1N=C(c2ccc(OCCCOC3CCN(c4ncc(C(=O)N[C@H]5C(C)(C)[C@H](Oc6ccc(C#N)c(Cl)c6)C5(C)C)cn4)CC3)cc2)c2c(sc(C)c2C)-n2c(C)nnc21 [Compound I-62]	< 0.5	< 0.5	GI50 (VCaP cells; Homo sapiens, VCaP, 72 h): < 0.5 µM
Cc1sc2c(c1C)C(c1ccc(-c3cc(C4CCN(c5ncc(C(=O)N[C@H]6C(C)(C)[C@H](Oc7ccc(C#N)c(Cl)c7)C6(C)C)cn5)CC4)no3)cc1)=NC(Cc1ncco1)c1nnc(C)n1-2 (stereo partly shown) [Compound I-482]	< 0.5	< 0.5	GI50 (VCaP cells; Homo sapiens, VCaP, 72 h): < 0.5 µM
Cc1sc2c(c1C)C(c1ccc(N3CC4(CCN(c5ncc(C(=O)N[C@H]6C(C)(C)[C@H](Oc7ccc(C#N)c(Cl)c7)C6(C)C)cn5)CC4)C3)cc1)=NC(Cc1ncco1)c1nnc(C)n1-2 (stereo partly shown) [Compound I-625]	< 0.5	> 3	–
Cc1sc2c(c1C)C(c1ccc(NC3C[C@@H]4CCC[C@@H](C3)N4c3ncc(C(=O)N[C@H]4C(C)(C)[C@H](Oc5ccc(C#N)c(Cl)c5)C4(C)C)cn3)cc1)=N[C@@H](Cc1ncco1)c1nnc(C)n1-2 (stereo partly shown) [Compound I-629]	–	–	GI50 ([1]; 72 hours): < 0.5 µM; GI50 ([2]; 72 hours): > 3 µM
Cc1sc2c(c1C)C(c1ccc(N[C@H]3CCN(c4ncc(C(=O)N[C@H]5C(C)(C)[C@H](Oc6ccc(C#N)c(Cl)c6)C5(C)C)cn4)C[C@@H]3F)cc1)=NC(Cc1ncco1)c1nnc(C)n1-2 (stereo partly shown) [Compound I-630]	< 0.5	< 0.5	–
Cc1sc2c(c1C)C(c1ccc(N[C@H]3CCN(c4ncc(C(=O)N[C@H]5C(C)(C)[C@H](Oc6ccc(C#N)c(Cl)c6)C5(C)C)cn4)C3)cc1)=NC(Cc1ncco1)c1nnc(C)n1-2 (stereo partly shown) [Compound I-622]	< 0.5	< 0.5	–
Cc1sc2c(c1C)C(c1ccc(NCCC3CCN(c4ncc(C(=O)N[C@H]5C(C)(C)[C@H](Oc6ccc(C#N)c(Cl)c6)C5(C)C)cn4)CC3)cc1)=NC(Cc1ncco1)c1nnc(C)n1-2 (stereo partly shown) [Compound I-627]	< 0.5	< 0.5	–
Cc1sc2c(c1C)C(c1ccc(N3CC(N4CCN(c5ncc(C(=O)N[C@H]6C(C)(C)[C@H](Oc7ccc(C#N)c(Cl)c7)C6(C)C)cn5)CC4)C3)cc1)=NC(Cc1ncco1)c1nnc(C)n1-2 (stereo partly shown) [Compound I-628]	< 0.5	–	GI50 ([2]; 72 hours): > 3 µM
Cc1sc2c(c1C)C(c1ccc(N3[C@@H]4CC[C@H]3C[C@@H](Nc3ncc(C(=O)N[C@H]5C(C)(C)[C@H](Oc6ccc(C#N)c(Cl)c6)C5(C)C)cn3)C4)cc1)=N[C@@H](Cc1ncco1)c1nnc(C)n1-2 [Compound I-631]	–	–	GI50 ([1]; 72 hours): < 0.5 µM; GI50 ([2]; 72 hours): > 3 µM
Cc1sc2c(c1C)C(c1ccc(CC3CC(OC4CCN(c5ncc(C(=O)N[C@H]6C(C)(C)[C@H](Oc7ccc(C#N)c(Cl)c7)C6(C)C)cn5)CC4)C3)cc1)=N[C@@H](C)c1nnc(C)n1-2 (stereo partly shown) [Compound I-446]	–	–	GI50 ([2]; 72 hours): > 3 µM; GI50 (VCaP cells): 1.5 to 3 µM; GI50 (T47D cells): < 0.5 µM
Cc1sc2c(c1C)C(c1ccc(N3CC[C@H](Nc4ncc(C(=O)N[C@H]5C(C)(C)[C@H](Oc6ccc(C#N)c(Cl)c6)C5(C)C)cn4)C3)cc1)=N[C@@H](Cc1ncco1)c1nnc(C)n1-2 [Compound I-624]	< 0.5	< 0.5	–
Cc1sc2c(c1C)C(c1ccc(N3CCC4(CCCN(c5ncc(C(=O)N[C@H]6C(C)(C)[C@H](Oc7ccc(C#N)c(Cl)c7)C6(C)C)cn5)C4)C3)cc1)=N[C@@H](Cc1ncco1)c1nnc(C)n1-2 (stereo partly shown) [Compound I-632]	< 0.5	> 3	–
Cc1sc2c(c1C)C(c1ccc(NCC3CC4(C3)CN(c3ncc(C(=O)N[C@H]5C(C)(C)[C@H](Oc6ccc(C#N)c(Cl)c6)C5(C)C)cn3)C4)cc1)=N[C@@H](Cc1ncco1)c1nnc(C)n1-2 [Compound I-660]	–	< 0.5	GI50 (VCaP cells; Homo sapiens, VCaP, 72 h): < 0.5 µM; GI50 (T47D cells; Homo sapiens, T47D, 72 h): < 0.5 µM
Cc1sc2c(c1C)C(c1ccc(N3CCC(C)(Nc4ncc(C(=O)N[C@H]5C(C)(C)[C@H](Oc6ccc(C#N)c(Cl)c6)C5(C)C)cn4)CC3)cc1)=N[C@@H](Cc1ncco1)c1nnc(C)n1-2 [Compound I-626]	< 0.5	> 3	–
Cc1sc2c(c1C)C(c1ccc(N[C@H]3CC[C@@H](Nc4ncc(C(=O)N[C@H]5C(C)(C)[C@H](Oc6ccc(C#N)c(Cl)c6)C5(C)C)cn4)CC3)cc1)=N[C@@H](Cc1ncco1)c1nnc(C)n1-2 [Compound I-623]	< 0.5	< 0.5	–
